Source: patent publication US20110223177A1, “TREATMENT OF FIBROTIC EYE DISORDERS” (UNIVERSITY OF EAST ANGLIA, priority 2008, published 2011)
Entries after “also recorded” stand apart in the source; their conditions may differ.

Key:
[1] = tested on: human lens epithelial cell line FHL124; assay: FHL124 patch growth/contraction assay; assay type: cell-based; details: FHL 124 patches
Experimental: FIG. 3. TGF-β-induced matrix contraction is suppressed by the MLCK inhibitor ML7. FHL 124 cells were seeded to form patches and maintained in the following conditions: EMEM (Eagle's minimal essential medium—standard culture medium) supplemented with 5% FCS (fetal calf serum—control)±15 μM ML7 (myosin light chain kinase inhibitor) (Calbiochem) for a 72 hour experimental period. In the graph, each left hand bar of the bar pairs reports the result in the absence of ML7 (indicated as “−15 uM ML-7” in the key) and the right hand bar reports the result in the presence of 15 μM ML7 (indicated as “[…]” in the key). Please note that numerical data can be obtained from these patches, which can be scrutinized by statistical analysis.
FIG. 4. TGF-β-induced matrix contraction is promoted by the MLCP inhibitor tautomycin (Calbiochem). FHL 124 cells were seeded to form patches and maintained in the following conditions: EMEM (standard culture medium) supplemented with 5% FCS (control)±50 nM tautomycin (myosin phosphatase inhibitor); control+10 ng/ml TGFβ1±50 nM tautomycin; control+10 ng/ml TGFβ2±50 nM tautomycin for a 48 hour experimental period. […]
FHL124 cells were seeded at 4 sites on a tissue culture dish at 5000 cells per site and maintained in EMEM supplemented with 5% FCS until confluent regions spanning approximately 5 mm developed. […] The cells were then washed in PBS and stained with Coomassie brilliant blue (a total protein dye) for 30 minutes to enable patches to be visualised and measured. […] Images of patches were captured on a CCD camera using GeneSnap and analysed using Scion image. After the patch area was measured, PBS medium was aspirated from the culture dish and replaced with 1 ml of 70% ethanol allowing Coomassie blue dye within the cells to be dissolved. […] A 200 μl sample of dye from each dish was placed in a clear plastic 96 well microtitre plate and the absorbance read at 550 nm using a plate reader. […]

[2] = tested on: phosphorylated (active) myosin in FHL124 cells; assay: Western blot detection of phosphorylated (active) myosin in response to TGF-β; assay type: cell-based, human; details: 15 μM ML7, 10 ng/ml TGF-β2, FHL124 cells
Experimental: FIG. 2. Western blot detection of phosphorylated (active) myosin in response to 10 ng/ml TGF-β2 (Sigma, Poole, Dorset, UK). The data presented are pooled from 3 separate experiment. Each left hand bar of the bar pairs reports the result in the absence of ML7 (indicated as “−15 uM ML-7” in the key) and the right hand bar reports the result in the presence of 15 μM ML7 (indicated as “+15 uM ML-7” in the key). Beta actin was used as a control for equivalent protein amounts. * Indicates a significant difference from untreated control group (p<0.05; student's t-test).
FHL-124 cells were washed with 1.5 ml PBS then lysed on ice in 0.5 mls Daubs lysis buffer; (50 mM HEPES pH 7.5, 150 mM NaCl, 1% Triton X-100, 1 mM EDTA, 10% glycerol, 10 mM sodium pyrophosphate, 2 mM sodium orthovanadate, 10 mM sodium fluoride, 250 mls ddH2O, 1 mM phenylmethylsulfonylfluoride and 10 μg/ml aprotinin. Lysates were pre-cleared by centrifuging at 13000 rpm at 4° C. for 10 min, and the protein content of the soluble fraction will be assayed by Bicinchoninic (BCA) protein assay. Equal amounts of protein per sample were loaded onto 10% SDS-PAGE gels for electrophoresis and transferred onto a polyvinylidene fluoride (PVDF) membrane with a BIO-RAD Trans-Blot semi-dry Transfer Cell. […] Gels were scanned using an HP scanjet 5470c and band intensity determined with Kodak 1D 3.5 software.

human lens capsular bags = assay: Human lens capsular bag model; assay type: cell-based
Experimental: FIG. 7. The effect of MLCK inhibition (using 15 μM ML7) on cell coverage of the previously cell-free posterior capsule of human capsular bags following 7 days of culture. The data represent Mean SEM (n=4). * Indicates a significant difference from control group. N.B. Control conditions are EMEM supplemented with 5% serum and 10 ng/ml TGFβ.
FIG. 8. High (top row) and low power (bottom row) phase-contrast micrographs showing cells growing on the lens capsular bag treated with 10 ng/mL TGF-β in the presence or absence of ML7 (15 μM). Contraction (wrinkles) of the lens capsular bag is evident when treated with 10 ng/ml TGF-β alone.
The model first described by Liu, C. S. C., et al., (Invest. Ophthalmol. Vis. Sci. (1996), 37, pages, 906-914) was employed. Following removal of corneo-scleral discs for transplantation purposes, human donor eyes from the East Anglian Eye Banks, UK (obtained with full ethical approval—COREC form approved 1 Dec. 2004. Ref04/Q0102/57) were used to perform a sham cataract operation. The resulting capsular bag was then dissected free of the zonules and secured on a sterile 35 mm polymethylmethacrylate (PMMA) petri dish. […] Coverage and matrix modification of the previously cell-free posterior capsule were captured on a daily basis using low-power phase microscopy and quantified using analysis software. […]

[3] = tested on: cells growing on the lens capsular bag; assay: Immunocytochemical analysis of capsular bags at end point; assay type: cell-based, human; details: 15 μM ML7, 10 ng/ml TGF-β
Experimental: FIG. 9. […] The fields of view represent 448×342 μm.
Preparations were fixed for 30 minutes in 4% formaldehyde in PBS and permeabilised in PBS containing 0.5% Triton-X100, also for 30 minutes. Anti-CPI-17 and Anti-alpha smooth muscle actin was diluted 1:100 and applied for 60 min at 35° C., followed by washing. CPI-17 was visualised with ALEXA 488-conjugated secondary antibodies (Molecular Probes, Leiden, Netherlands). The F-actin cytoskeleton was stained with Texas Red-X-phalloidin and chromatin using DAPI (Molecular Probes, Leiden, Netherlands) for 10 min at room temperature. The stained preparations were again washed extensively, floated onto microscope slides and mounted in Hydromount mounting medium (National Diagnostics, Hull, UK). Images were viewed with a Zeiss epifluorescence microscope and Axiovision software.
From the work on the cell line we chose to test ML7 i.e. the MLCK inhibitor. These studies were carried out on separate donors using a match paired format; one capsular bag was maintained in TGF-β and serum supplemented medium, while the other was maintained in TGF-β and serum supplemented medium plus 15 μM ML7. There is great consistency in cell behaviour from one eye to another from an individual donor; therefore the effects observed are due to the presence or absence of the inhibitor. […] This growth inhibition could be useful in the treatment of PCO as growth across the capsule is a critical component in the development of the condition, but this is a retardation of cell growth rather than ablation. […] In addition, we have carried out immunocytochemical analysis of the capsular bags at end point (FIG. 9).

| Structure (SMILES) | TGF-β-induced matrix contraction ([1]; 50 nM tautomycin, 10 ng/ml TGFβ1 or TGFβ2, 48 hour) | TGF-β-induced matrix contraction ([1]; 50 nM tautomycin, 10 ng/ml TGFβ1 or TGFβ2, 48 hour, listed as Tautomycin) | TGFβ-induced myosin activation (phosphorylated myosin) [2] | TGF-β-induced matrix contraction ([1]; 15 μM ML7, 72 hour, EMEM + 5% FCS) | TGF-β-induced matrix contraction (wrinkles) of the lens capsular bag (human lens capsular bags; 15 μM ML7, 10 ng/ml TGF-β) | cell coverage of the previously cell-free posterior capsule (human lens capsular bags; 15 μM ML7, 7 days of culture, EMEM + 5% serum + 10 ng/ml TGFβ, control group 100% cover) [%] | distribution of cell nuclei [3] | general organization of the cells [3] | αSMA levels versus control bags [3] |
| --- | --- | --- | --- | --- | --- | --- | --- | --- | --- |
| CO[C@H]([C@H](O)CC(=O)[C@@H](C)[C@@H](O)CC[C@@H](C)[C@@H]1O[C@]2(CC[C@@H](C)[C@H](CC[C@H](C)C(C)=O)O2)CC[C@@H]1C)[C@H](OC(=O)C[C@@H](O)C1=C(C)C(=O)OC1=O)C(C)C [tautomycin] | speeded up the rate of contraction | significantly increases TGF-β-induced contraction | – | – | – | – | – | – | – |
| O=S(=O)(c1cccc2c(I)cccc12)N1CCCNCC1 [ML7, (5-iodonaphthalene-1-sulfonyl)homopiperazine] | – | – | significantly inhibited TGFβ-induced myosin activation | significantly suppresses TGF-β-induced contraction; also recorded: significant reduction of TGF-β-induced contraction | does not give rise to wrinkle formation; also recorded: can suppress TGF-β-induced matrix contraction | 80 | even distribution of cell nuclei | cobblestone appearance | similar |
